The results in this text go back to patent US20060142202A1, “Compositions and methods for targeted delivery of immune response modifiers” (3M Innovative Properties Company, priority 2000, published 2006).

Usually melting point stands for the temperature of the solid-liquid transition.

Structures are written as SMILES.

Consider `CCOCc1nc2c(N)nc3ccccc3c2n1CC(C)(C)NC(=O)CCC(=O)NN` [IRM5, N-{2-[4-Amino-2-(ethoxymethyl)-1H-imidazo[4,5-c]quinolin-1-yl]-1,1-dimethylethyl}-4-hydrazino-4-oxobutanamide], for which the melting point is 203 to 204.6 °C. `CCCc1nc2c(N)nc3cc(OCCCCCCNC(=O)c4ccc(N=[N+]=[N-])cc4O)ccc3c2s1` [IRM9, N-{6-[(4-Amino-2-propyl[1,3]thiazolo[4,5-c]quinolin-7-yl)oxy]hexyl}-4-azido-2-hydroxybenzamide]: the melting point is 127 to 128 °C.
